Experimental data from ChEMBL document CHEMBL1134183, “First tricyclic oximino derivatives as 5-HT3 ligands” (Bioorg Med Chem Lett, 2001).

Key:
[1] = molecular target: Serotonin 3 (5-HT3) receptor; assay: Binding affinity towards 5-hydroxytryptamine 3 receptor; format: protein-complex assay
[2] = molecular target: Serotonin 3 (5-HT3) receptor; assay: Compound was tested for agonistic activity against 5-HT uptake; format: functional
[3] = molecular target: T1, 5-hydroxytryptamine receptor 1A (Homo sapiens, UniProt P08908); assay: Compound was tested for binding affinity against 5-hydroxytryptamine 1A receptor
T1 sequence (P08908 whole entry): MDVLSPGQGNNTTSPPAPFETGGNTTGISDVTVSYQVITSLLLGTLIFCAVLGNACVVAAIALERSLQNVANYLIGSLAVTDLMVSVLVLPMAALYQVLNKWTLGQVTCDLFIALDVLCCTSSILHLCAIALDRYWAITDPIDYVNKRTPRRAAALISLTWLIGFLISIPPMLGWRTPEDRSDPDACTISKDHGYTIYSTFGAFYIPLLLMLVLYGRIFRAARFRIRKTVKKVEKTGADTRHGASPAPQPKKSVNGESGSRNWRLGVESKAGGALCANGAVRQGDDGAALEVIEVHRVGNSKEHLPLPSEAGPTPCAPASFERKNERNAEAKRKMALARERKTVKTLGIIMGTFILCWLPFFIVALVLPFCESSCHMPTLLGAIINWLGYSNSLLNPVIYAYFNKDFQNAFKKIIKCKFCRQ

[4] = molecular target: 5-hydroxytryptamine receptor 1B (Homo sapiens, UniProt P28222); assay: Compound was tested for binding affinity against 5-hydroxytryptamine 1B receptor
5-hydroxytryptamine receptor 1B, sequence (P28222 whole entry): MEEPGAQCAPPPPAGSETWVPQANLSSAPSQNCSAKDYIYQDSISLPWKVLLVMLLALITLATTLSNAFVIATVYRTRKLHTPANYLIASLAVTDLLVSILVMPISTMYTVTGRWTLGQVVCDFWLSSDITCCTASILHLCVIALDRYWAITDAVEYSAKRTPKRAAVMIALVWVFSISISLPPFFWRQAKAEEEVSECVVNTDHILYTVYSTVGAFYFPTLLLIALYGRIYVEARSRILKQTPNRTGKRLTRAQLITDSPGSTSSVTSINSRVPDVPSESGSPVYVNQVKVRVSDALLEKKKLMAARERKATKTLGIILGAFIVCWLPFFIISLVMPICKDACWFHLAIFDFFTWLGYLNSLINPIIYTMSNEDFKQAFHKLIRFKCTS

[5] = molecular target: Serotonin 2 (5-HT2) receptor (Homo sapiens, UniProt P41595+P28223+P28335); assay: Compound was tested for binding affinity against 5-hydroxytryptamine 2 receptor; format: protein assay
[6] = molecular target: T2, 5-hydroxytryptamine receptor 2C (Homo sapiens, UniProt P28335); assay: Compound was tested for binding affinity against 5-hydroxytryptamine 2C receptor
T2 sequence (P28335 whole entry): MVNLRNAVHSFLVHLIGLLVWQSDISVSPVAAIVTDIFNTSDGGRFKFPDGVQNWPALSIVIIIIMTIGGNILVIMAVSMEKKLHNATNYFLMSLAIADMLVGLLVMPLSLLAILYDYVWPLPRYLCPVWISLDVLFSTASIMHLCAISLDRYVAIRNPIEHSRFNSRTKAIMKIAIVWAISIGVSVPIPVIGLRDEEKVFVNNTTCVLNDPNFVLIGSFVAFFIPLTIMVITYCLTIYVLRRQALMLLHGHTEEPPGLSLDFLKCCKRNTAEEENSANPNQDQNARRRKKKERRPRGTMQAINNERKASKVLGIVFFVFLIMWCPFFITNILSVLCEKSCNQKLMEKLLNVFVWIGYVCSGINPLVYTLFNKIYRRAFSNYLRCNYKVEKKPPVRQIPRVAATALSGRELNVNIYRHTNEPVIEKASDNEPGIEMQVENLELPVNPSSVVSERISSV

[7] = molecular target: 5-hydroxytryptamine receptor 1D (Homo sapiens, UniProt P28221); assay: Compound was tested for binding affinity against 5-hydroxytryptamine 1D receptor
5-hydroxytryptamine receptor 1D, sequence (P28221 whole entry): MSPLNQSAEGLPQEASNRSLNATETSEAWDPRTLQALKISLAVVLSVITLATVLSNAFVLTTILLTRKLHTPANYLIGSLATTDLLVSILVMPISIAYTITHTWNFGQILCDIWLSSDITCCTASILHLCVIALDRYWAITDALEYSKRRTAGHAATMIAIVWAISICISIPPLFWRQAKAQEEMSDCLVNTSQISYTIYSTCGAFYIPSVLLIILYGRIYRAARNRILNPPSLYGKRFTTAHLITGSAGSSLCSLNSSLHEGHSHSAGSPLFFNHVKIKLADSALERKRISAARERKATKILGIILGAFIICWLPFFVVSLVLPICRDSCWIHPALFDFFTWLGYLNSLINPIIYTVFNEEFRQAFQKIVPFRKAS

[8] = molecular target: T3, Serotonin 3 (5-HT3) receptor (Homo sapiens) (UniProt P46098+A5X5Y0+O95264+Q70Z44+Q8WXA8); assay: Compound was tested for agonistic activity against 5-hydroxytryptamine 3 receptor on guinea colon at a concentration 0.01 uM; format: functional, tissue-based; settings: Cavia porcellus, target entry is the homologue from another species
[9] = molecular target: T3, Serotonin 3 (5-HT3) receptor (Homo sapiens); assay: Percent of control response to 5-HT3 agonistic activity on guinea colon at a concentration 0.1 uM; format: functional, tissue-based; settings: Cavia porcellus, target entry is the homologue from another species
[10] = molecular target: T3, Serotonin 3 (5-HT3) receptor (Homo sapiens); assay: Percent of control response to 5-HT3 agonistic activity on guinea colon at a concentration 1 uM; format: functional, tissue-based; settings: Cavia porcellus, target entry is the homologue from another species
[11] = molecular target: T3, Serotonin 3 (5-HT3) receptor (Homo sapiens); assay: Percent of control response to 5-HT3 agonistic activity on guinea colon at a concentration 1 uM in the presence of 30 uM MDL 72222; format: functional, tissue-based; settings: Cavia porcellus, target entry is the homologue from another species
[12] = molecular target: T3, Serotonin 3 (5-HT3) receptor (Homo sapiens); assay: Percent of control response to 5-HT3 antagonistic activity on guinea colon at a concentration 0.01 uM; format: functional, tissue-based; settings: Cavia porcellus, target entry is the homologue from another species
[13] = molecular target: T3, Serotonin 3 (5-HT3) receptor (Homo sapiens); assay: Percent of control response to 5-HT3 antagonistic activity on guinea colon at a concentration 1 uM; format: functional, tissue-based; settings: Cavia porcellus, target entry is the homologue from another species
[14] = molecular target: T3, Serotonin 3 (5-HT3) receptor (Homo sapiens); assay: Percent of control response to 5-HT3 agonistic activity on guinea colon at a concentration 0.01 uM; format: functional, tissue-based; settings: Cavia porcellus, target entry is the homologue from another species
[15] = molecular target: 5-hydroxytryptamine receptor 7 (Homo sapiens) (UniProt P34969); assay: Percentage of displacement at 5-hydroxytryptamine 7 receptor at 10e-8 M
5-hydroxytryptamine receptor 7 (Homo sapiens), sequence (P34969 whole entry): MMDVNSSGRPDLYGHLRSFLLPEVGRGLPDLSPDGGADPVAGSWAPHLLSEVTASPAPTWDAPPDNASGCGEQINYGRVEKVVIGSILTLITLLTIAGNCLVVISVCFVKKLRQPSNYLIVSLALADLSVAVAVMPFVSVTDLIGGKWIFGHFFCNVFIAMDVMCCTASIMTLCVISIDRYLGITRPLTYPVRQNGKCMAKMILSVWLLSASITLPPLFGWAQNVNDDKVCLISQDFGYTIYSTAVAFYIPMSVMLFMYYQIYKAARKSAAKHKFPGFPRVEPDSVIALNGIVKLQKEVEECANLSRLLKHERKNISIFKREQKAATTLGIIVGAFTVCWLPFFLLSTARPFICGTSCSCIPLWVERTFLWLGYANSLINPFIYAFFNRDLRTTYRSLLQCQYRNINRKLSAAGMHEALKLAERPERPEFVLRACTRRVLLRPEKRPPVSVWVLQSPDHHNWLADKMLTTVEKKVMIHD

[16] = molecular target: 5-hydroxytryptamine receptor 4 (Homo sapiens, UniProt Q13639); assay: Compound was tested for agonistic activity against 5-hydroxytryptamine 4 receptor on guinea colon at a concentration 0.1 uM; format: functional, tissue-based
5-hydroxytryptamine receptor 4, sequence (Q13639 whole entry): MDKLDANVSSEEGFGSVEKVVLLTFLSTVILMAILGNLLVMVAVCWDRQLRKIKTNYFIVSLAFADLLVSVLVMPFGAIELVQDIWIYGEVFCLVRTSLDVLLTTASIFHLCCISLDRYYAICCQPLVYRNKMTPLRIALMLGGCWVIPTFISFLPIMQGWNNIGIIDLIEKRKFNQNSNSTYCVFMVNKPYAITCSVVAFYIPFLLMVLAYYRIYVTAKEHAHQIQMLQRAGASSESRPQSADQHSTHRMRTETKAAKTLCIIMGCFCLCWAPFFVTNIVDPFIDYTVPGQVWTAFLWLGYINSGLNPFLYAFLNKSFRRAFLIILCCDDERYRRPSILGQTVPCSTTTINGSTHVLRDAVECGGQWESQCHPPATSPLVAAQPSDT

[17] = molecular target: Serotonin 3 (5-HT3) receptor; assay: Compound was tested for binding affinity towards 5-hydroxytryptamine 3 receptor; format: protein-complex assay
[18] = molecular target: 5-hydroxytryptamine receptor 6 (Homo sapiens) (UniProt P50406); assay: Percentage of displacement at 5-hydroxytryptamine 6 receptor at 10e-8 M
5-hydroxytryptamine receptor 6 (Homo sapiens), sequence (P50406 whole entry): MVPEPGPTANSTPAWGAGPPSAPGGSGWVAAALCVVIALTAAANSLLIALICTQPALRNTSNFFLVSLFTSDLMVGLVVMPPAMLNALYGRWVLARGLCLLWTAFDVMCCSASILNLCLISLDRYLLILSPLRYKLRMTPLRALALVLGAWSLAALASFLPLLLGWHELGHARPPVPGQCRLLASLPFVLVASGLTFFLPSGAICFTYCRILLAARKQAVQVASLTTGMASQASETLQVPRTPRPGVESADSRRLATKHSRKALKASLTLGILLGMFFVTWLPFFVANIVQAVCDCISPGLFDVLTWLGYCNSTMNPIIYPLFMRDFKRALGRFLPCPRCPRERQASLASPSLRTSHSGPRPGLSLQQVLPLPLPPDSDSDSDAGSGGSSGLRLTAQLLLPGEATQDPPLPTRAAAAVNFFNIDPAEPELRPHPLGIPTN

[19] = molecular target: Sodium-dependent dopamine transporter (Homo sapiens) (UniProt Q01959); assay: Compound was tested for binding affinity against dopaminergic uptake
Sodium-dependent dopamine transporter (Homo sapiens), sequence (Q01959 whole entry): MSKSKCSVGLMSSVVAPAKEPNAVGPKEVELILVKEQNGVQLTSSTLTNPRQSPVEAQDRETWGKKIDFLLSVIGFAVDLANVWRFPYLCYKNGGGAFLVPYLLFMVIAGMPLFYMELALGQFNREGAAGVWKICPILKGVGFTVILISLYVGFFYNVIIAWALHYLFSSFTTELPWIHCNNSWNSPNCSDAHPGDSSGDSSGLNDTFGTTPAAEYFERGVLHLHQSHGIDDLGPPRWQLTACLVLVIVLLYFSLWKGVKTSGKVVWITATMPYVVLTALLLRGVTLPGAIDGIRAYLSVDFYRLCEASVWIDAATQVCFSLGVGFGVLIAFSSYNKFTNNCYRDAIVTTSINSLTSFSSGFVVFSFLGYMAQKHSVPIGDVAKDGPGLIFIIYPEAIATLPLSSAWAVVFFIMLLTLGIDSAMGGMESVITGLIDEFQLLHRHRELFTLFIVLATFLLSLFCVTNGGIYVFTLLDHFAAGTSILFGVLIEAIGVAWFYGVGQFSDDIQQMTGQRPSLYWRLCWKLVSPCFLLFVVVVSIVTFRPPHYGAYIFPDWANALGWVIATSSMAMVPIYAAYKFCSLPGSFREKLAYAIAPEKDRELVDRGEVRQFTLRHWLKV

[20] = molecular target: Sodium-dependent noradrenaline transporter (Homo sapiens) (UniProt P23975); assay: Compound was tested for binding affinity against noradrenergic uptake
Sodium-dependent noradrenaline transporter (Homo sapiens), sequence (P23975 whole entry): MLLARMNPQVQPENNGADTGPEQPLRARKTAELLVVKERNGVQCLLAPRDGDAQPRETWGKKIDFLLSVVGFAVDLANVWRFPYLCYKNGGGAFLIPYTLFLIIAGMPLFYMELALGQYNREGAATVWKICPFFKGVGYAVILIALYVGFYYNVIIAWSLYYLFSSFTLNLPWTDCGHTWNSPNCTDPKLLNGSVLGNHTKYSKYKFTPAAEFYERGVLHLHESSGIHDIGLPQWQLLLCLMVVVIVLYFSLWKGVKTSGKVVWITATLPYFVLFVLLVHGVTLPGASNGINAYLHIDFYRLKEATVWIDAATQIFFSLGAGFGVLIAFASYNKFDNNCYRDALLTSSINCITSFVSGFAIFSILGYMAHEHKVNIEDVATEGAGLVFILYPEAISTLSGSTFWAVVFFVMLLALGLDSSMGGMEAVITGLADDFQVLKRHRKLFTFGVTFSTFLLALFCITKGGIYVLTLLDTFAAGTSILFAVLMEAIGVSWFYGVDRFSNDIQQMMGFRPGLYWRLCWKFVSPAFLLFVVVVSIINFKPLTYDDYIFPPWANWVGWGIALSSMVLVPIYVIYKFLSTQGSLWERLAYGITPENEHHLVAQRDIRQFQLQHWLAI

[21] = Compound was tested for binding affinity against 5-HT1 receptor
[22] = molecular target: T3, Serotonin 3 (5-HT3) receptor (Homo sapiens); assay: Compound was tested for agonistic activity against 5-hydroxytryptamine 3 receptor on guinea pig colon at a concentration of 1 uM; format: functional, tissue-based; settings: Cavia porcellus, target entry is the homologue from another species
[23] = molecular target: T3, Serotonin 3 (5-HT3) receptor (Homo sapiens); assay: Compound was tested for agonistic activity against 5-hydroxytryptamine 3 receptor on guinea pig colon at a concentration of 10 uM; format: functional, tissue-based; settings: Cavia porcellus, target entry is the homologue from another species
[24] = molecular target: T3, Serotonin 3 (5-HT3) receptor (Homo sapiens); assay: Compound was tested for agonistic activity against 5-hydroxytryptamine 3 receptor on guinea pig colon at a concentration of 10 uM in the presence of 30 uM MDL 72222; format: functional, tissue-based; settings: Cavia porcellus, target entry is the homologue from another species
[25] = molecular target: T3, Serotonin 3 (5-HT3) receptor (Homo sapiens); assay: Compound was tested for agonistic activity against 5-hydroxytryptamine 3 receptor on guinea pig colon at a concentration of 3 uM; format: functional, tissue-based; settings: Cavia porcellus, target entry is the homologue from another species

c1ccc(CNCCO/N=C2\c3ccccc3-n3cccc32)cc1
-Log IC50 [1]: 6.54

CN(C)CCO/N=C1\c2cc(Cl)ccc2-n2cccc21
-Log IC50 [1]: 7.06

c1ccc(CN2CCN(c3nc4sccc4n4cccc34)CC2)cc1
-Log IC50 [1]: 8.34

CN(CCO/N=C1\c2sccc2-n2cccc21)Cc1ccccc1
-Log IC50 [1]: 7.63

CCN(CC)CCO/N=C1\c2sccc2-n2cccc21
-Log IC50 [1]: 8.3

CN1CCCC1CCO/N=C1\c2ccccc2-n2cccc21 (configuration not stated)
-Log IC50 [1]: 7.85

CN(C)CCO/N=C1\c2sccc2-n2cccc21
-Log IC50 [1]: 8.46

Cc1csc2c1-n1cccc1/C2=N/OCCN
-Log IC50 [1]: 7.62

Cc1csc2c1-n1cccc1/C2=N/OCCCN(C)Cc1ccccc1
-Log IC50 [1]: 7.47

Cc1csc2c1-n1cccc1/C2=N/OCCN1CCCCC1
-Log IC50 [1]: 8.4

Cc1csc2c1-n1cccc1/C2=N/OCCN(C)C
-Log IC50 [2]: 6.92
IC50 [3]: 5750 nM
IC50 [4]: 2690 nM
-Log IC50 [5]: 5.5
IC50 [6]: 2140 nM
IC50 [7]: 479 nM
Activity [8]: 0
Activity [9]: 37
Activity [10]: 0
Activity [11]: 73
Activity [12]: 64
Activity [13]: 16
Activity [14]: 0
Displacement [15]: 0%
IC50 [16]: 871 nM
-Log IC50 [17]: 9.1
Displacement [18]: 0%
Affinity [19]: 5.28%
Affinity [20]: 6%
-Log IC50 [21]: 5.66

Cc1csc2c1-n1cccc1/C2=N/OCCCN(C)C
-Log IC50 [1]: 8.6

Cc1csc2c1-n1cccc1/C2=N/OCCN1CCCC1
-Log IC50 [1]: 8.7

NCCO/N=C1\c2ccccc2-n2cccc21
-Log IC50 [1]: 6.66

Cc1csc2c1-n1cccc1/C2=N/OCCN(C)Cc1ccccc1
-Log IC50 [1]: 8.16

Cc1ccc(-c2csc3c2-n2cccc2/C3=N/OCCN)cc1
-Log IC50 [1]: 6.66

Cc1csc2c1-n1cccc1/C2=N/OCCC1CCCN1C (configuration not stated)
-Log IC50 [1]: 8.7

Cc1csc2c1-n1cccc1/C2=N/OCCNCc1ccccc1
-Log IC50 [1]: 7.54

CN(C)CCO/N=C1\c2ccccc2-n2cccc21
-Log IC50 [1]: 8.24

NCCc1c[nH]c2ccc(O)cc12
Agonist activity [22]: 41
Agonist activity [23]: 90
Agonist activity [24]: 0
Agonist activity [25]: 76
